Read-outs that look alike come from different tables or passages of the source.
How the values were obtained:
Ec IspE = settings: cited from earlier work
PfIspE [1] = target: T1, PfIspE (Plasmodium falciparum, UniProt Q8I470); assay: Biochemical IspE assay (PK/LDH-coupled, NADH oxidation at 340 nm)
Excerpt: (§1) Here, we initiated a high-throughput screening (HTS) campaign on the PfIspE protein (Section S1 in the Supporting Information). The HTS was based on a proprietary library of 100 000 compounds from the BASF company and used the inhibitory potency of the compound against the IspE protein as the readout. The IC50 from the IspE assay was also a key parameter for our chemical optimization study. Therefore, it is important to note that the activity of the target enzyme in the IspE assay is coupled to the oxidation of NADH (which is followed spectrophotometrically at 340 nm) via a cascade of the auxiliary enzymes pyruvate kinase and lactate dehydrogenase (PK/LDH, Section S2 in the Supporting Information). Accordingly, to confirm that the effects observed in the IspE assay are due to inhibition of the target enzyme rather than the auxiliary enzymes, it is crucial to maintain a difference between the PK/LDH and IspE enzymatic activities. Furthermore, as we have previously reported, the biological testing of this chemical class requires careful handling such as storage of the compounds at −20 °C.[19] Based on what has been reported in the literature, a risk-mitigation strategy involves adding a substituent to the C-5 position of the thiazole ring,[20] which we have adhered to in this SAR exploration. […]
(§2) kBar. The lysate was then centrifuged at 15000 rpm for 80 minutes at 4 °C to remove cell debris, and the supernatant was collected.
(§3) 1.2. Protein Purification
(§4) The supernatant containing the target protein was applied to a Ni-chelating Sepharose column (1 cm x 20 cm) that had been equilibrated with the lysis buffer containing 15 mM imidazole. The column was washed with the same buffer supplemented with 15 mM imidazole until the OD280 reached the baseline. The bound proteins were then eluted from the column using a gradient of imidazole ranging from 15 mM to 600 mM, collected in a volume of 100 mL.
(§5) If further purification was required, size exclusion chromatography was performed using a Superdex200 (GE, 2 cm x 60 cm) column. The column was equilibrated with the lysis buffer without imidazole. The eluted IspE fractions from the previous chromatography step were directly applied to the top of the Superdex200 column.
(§6) The purity and integrity of the purified PfIspE protein were assessed using SDS-PAGE.
(§7) The molecular weight of the protein was estimated by comparison with standard protein markers. The concentration of the purified protein was determined using a NanoDrop.
(§8) The purified PfIspE protein was aliquoted and stored at - 80 °C until further use.
(§9) (Note: All procedures were performed at 4 °C unless otherwise specified ).
(§10) 2.0 Biochemical IspE assay
(§11) Escherichia coli IspE[1] and Plasmodium falciparum IspE[2] for IspE assays was expressed, isolated and purified as previously described. All other enzymes and chemicals used in the assays were purchased from Sigma-Aldrich (Taufkirchen, […]
For testing of compounds in the IspE assay, CDP-ME (0.2 mM) in 100 mM Tris-HCl, pH 7.6, 0.02% NaN3 (30 µL) was added to a well of the 384-well microplate, preloaded either with DMSO or with test compound dissolved in DMSO (3 µL). The reaction was started by addition of 100 mM Tris-HCl, pH 7.6, 10 mM MgCl2, 60 mM KCl, 10 mM dithiothreitol, 0.02% NaN3, 1 mM NADH, 2 mM phosphoenolpyruvate, 2 mM ATP, […]
pyruvate kinase (1 U mL–1), lactate dehydrogenase (1 U mL–1) and E. coli IspE (0.05 U mL–1) (27 µL per microplate well).
IC50 values were measured at CDP-ME concentration 100 µM. […]
(§12) For both kinds of assays the OD values in the microplate wells were monitored photometrically at 340 nm (room temperature) for 30 to 90 min in a plate reader (SpectraMax5, […], USA). Initial rate values were evaluated with a nonlinear regression method using the program Dynafit.[3]
Figure S1 : IC50 curve of compound 19.
(1 picture or pasted object on this page, not shown here)

[2] = target: PK-LDH (pyruvate kinase/lactate dehydrogenase); assay: Pyruvate kinase assay (auxiliary enzymes PK/LDH); assay type: biochemical; settings: determined for PfIspE IC50 < 100 μM
Excerpt: as §1, with “°C.[19]” for “°C.[19] Based on what has been reported in the literature, a risk-mitigation strategy involves adding a substituent to the C-5 position of the thiazole ring,[20] which we have adhered to in this SAR exploration.”
as §12, with “Dynafit.[3] […]” for “Dynafit.[3]”

PfNF54 = assay: [3H]-hypoxanthine incorporation assay, asexual blood stage parasites; assay type: cell-based; settings: Plasmodium falciparum
Description: However, direct comparison of the two assays is extremely difficult. Consequently, it is essential to note that the existence of additional target proteins within P. falciparum at this stage is neither confirmed nor ruled out. […]
the compound activity against P. falciparum NF54 asynchronous parasites, the [3H]- hypoxanthine incorporation assay was used as described.[4] Compounds dissolved in DMSO (10 mg/mL) are diluted in hypoxanthine - free culture media and was titrated in duplicates over a 64-fold range in 96 well plates. Parasite culture diluted to 0.3% parasitemia with 1.25% final haematocrit with hypoxantine-free medium was added at 100 µL to each well. Following a 48 h incubation, […] [3H]-hypoxanthine was added per well. Plates are incubated for another 24 h. Radioactivity was then measured using MicroBeta2 liquid scintillation counter (Perkin Elmer, Waltham, US) following parasite harvesting onto Microbeta FilterMate cell harvester (Perkin, Elmer, Waltham, US). The fifty percent inhibitory concentration (IC50) was then calculated by linear interpolation as described.[5]
For the background lysate, HEK293 cells (passage 27) were grown to 90% confluency in Dulbecco´s Modified Eagle´s Medium (DMEM high glucose, Sigma) supplemented with 2 mM L-glutamine and 10% (v/v) heat-inactivated fetal calf serum (FCS) in T-175 cell culture flasks. Lysis was performed using HEPES buffer (pH 7.5 , Roth) containing 1% Nonidet P 40 alternative (NP-40), 0.4% sodium dodecyl sulfate (SDS, Roth) and 1% sodium deoxycholate (Roth). The lysate was gently sonicated three times for 10 s on a Bandelin Sonoplus HD2070 at 10% amplitude. The lysate was cleared by centrifugation at 16.000 x g for 10 min. The protein content of the supernatant was determined using a BCA assay (ROTIQuant, Roth) according to the suppliers specifications and adjusted to 5 µg/µL to yield the stock solutions used in the […]
7.2 Reaction with probe 23
The protein samples were prepared to result in 50 µg lysate protein per lane and/or 10 µg of the respective recombinant protein (see section 1 of this SI). […]

EcIspE [3] = target: T2, EcIspE (Escherichia coli, UniProt P62615); assay: Analytical SDS-PAGE, photoprobe labelling and competition of probe 23 with compound 19; assay type: binding; settings: for Probe binding to IspE (SDS-PAGE): probe 10 µM, native protein
T2 construct: made in house

PfIspE [4] = target: T1, PfIspE; assay: as above; assay type: binding; settings: for Probe binding to IspE (SDS-PAGE): probe 10 µM, native protein
EcIspE [5] = target: T2, EcIspE; assay: Biochemical IspE assay (PK/LDH-coupled); settings: Table S1; read-out: Inhibitory potency on EcIspE
Description: as §2, §3, §4, §5, §6, §7, §8, §9, §10, §11
as §12, with “Dynafit.[3] […]” for “Dynafit.[3]”

[6] = CDP-ME concentration 100 µM, read-out: IC50 PfIspE
[7] = parasite growth, 72 h total incubation, read-out: IC50 PfNF54
[8] = competitor 19 in 15 times excess
[9] = compound 19 in 15 times excess to probe 23 (10 µM)

T1 sequence (Q8I470 entry or part of it): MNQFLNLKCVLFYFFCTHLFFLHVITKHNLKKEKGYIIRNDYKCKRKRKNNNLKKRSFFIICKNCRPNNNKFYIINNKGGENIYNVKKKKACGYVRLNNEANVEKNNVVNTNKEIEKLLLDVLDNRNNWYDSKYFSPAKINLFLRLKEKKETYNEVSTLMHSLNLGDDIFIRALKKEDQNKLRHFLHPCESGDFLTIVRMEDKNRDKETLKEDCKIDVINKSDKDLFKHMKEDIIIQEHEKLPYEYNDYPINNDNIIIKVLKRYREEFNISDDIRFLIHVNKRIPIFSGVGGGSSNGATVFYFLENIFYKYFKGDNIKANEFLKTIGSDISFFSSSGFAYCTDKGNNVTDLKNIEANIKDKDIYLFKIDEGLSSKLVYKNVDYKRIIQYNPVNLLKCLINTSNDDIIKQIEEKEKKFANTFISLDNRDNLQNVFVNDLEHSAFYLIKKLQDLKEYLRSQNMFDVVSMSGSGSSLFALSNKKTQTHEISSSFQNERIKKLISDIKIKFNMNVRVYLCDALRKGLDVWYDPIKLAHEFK
T2 sequence (P62615 whole entry): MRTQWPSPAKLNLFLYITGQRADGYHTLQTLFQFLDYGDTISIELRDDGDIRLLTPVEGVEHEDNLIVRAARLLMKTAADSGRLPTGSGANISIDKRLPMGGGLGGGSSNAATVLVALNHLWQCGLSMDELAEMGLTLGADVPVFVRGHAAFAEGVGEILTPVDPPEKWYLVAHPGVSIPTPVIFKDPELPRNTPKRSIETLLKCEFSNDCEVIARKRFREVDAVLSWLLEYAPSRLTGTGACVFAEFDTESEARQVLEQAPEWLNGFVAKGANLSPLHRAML

## Nc1nc(=O)n(C2CCCS2)cc1C#CCNS(=O)(=O)C1CC1 (stereo not shown) [Compound 1]
Ec IspE
  IC50: 8 ± 0.1 µM

## CCOC(=O)CC1(n2cc(C#CCNS(=O)(=O)C3CC3)c(N)nc2=O)COC1 [Compound 1a]
Ec IspE
  IC50: 590 ± 10 µM

## NCCC(=O)Nc1ccc(I)cc1Oc1cc(Cl)cc(Cl)c1 [Compound 2]
Ec IspE
  IC50: 63 ± 15 µM

## Oc1csc(Nc2nccs2)n1 [Compound 7]
Ec IspE
  IC50: 160 ± 0.9 µM

## C1=C(c2c[nH]c3ncccc23)CCNC1 [Compound 8]
Ec IspE
  IC50: 1500 ± 300 µM

## CCn1c(C)cc(-c2csc(Nc3cccc(C(F)(F)F)c3)n2)c1C [Compound 9]
PfIspE [1]; [6]
  IC50: 405 ± 114 µM

## CCn1c(C)cc(-c2csc(Nc3ccccc3C(F)(F)F)n2)c1C [Compound 10]
PfIspE [1]; [6]
  IC50: > 500 µM

## CCn1c(C)cc(-c2csc(Nc3ccc(C(F)(F)F)cc3)n2)c1C [Compound 11]
PfIspE [1]; [6]
  IC50: 128 ± 23 µM

## CCn1c(C)cc(-c2csc(Nc3ccccc3)n2)c1C [Compound 12]
PfIspE [1]; [6]
  IC50: > 500 µM

## CCn1c(C)cc(-c2csc(Nc3ccc(N(C)C)cc3)n2)c1C [Compound 13]
PfIspE [1]; [6]
  IC50: > 500 µM

## CCn1c(C)cc(-c2csc(Nc3ccc(OC)cc3)n2)c1C [Compound 14]
PfIspE [1]; [6]
  IC50: > 500 µM

## CCn1c(C)cc(-c2csc(Nc3ccc(Cl)cc3)n2)c1C [Compound 15]
PfIspE [1]; [6]
  IC50: 111 ± 34 µM

## CCn1c(C)cc(-c2csc(Nc3ccc(Cl)nc3)n2)c1C [Compound 16]
PfIspE [1]; [6]
  IC50: 216 ± 53 µM

## CCn1c(C)cc(-c2csc(Nc3cc(Cl)cc(Cl)c3)n2)c1C [Compound 17]
PfIspE [1]; [6]
  IC50: 143 ± 24 µM

## CCn1c(C)cc(-c2csc(Nc3ccc(CN)cc3)n2)c1C [Compound 18]
[2]
  IC50: > 500 µM
PfIspE [1]
  IC50: 86 ± 44 µM

## CCn1c(C)cc(-c2csc(Nc3ccc4[nH]cnc4c3)n2)c1C [Compound 19]
[2]
  IC50: > 500 µM
PfNF54; corresponding to 0.82 μg/mL, read-out: IC50 PfNF54 converted to molar
  IC50: ~2.4 µM
PfNF54; [7]
  IC50: 0.82 ± 0.01 µg/mL
EcIspE [3]; [8]
  Reduction in fluorescence of probe 23 label: 63%
EcIspE [3]; [9]
  Relative fluorescence of probe 23 label remaining: about 37%
PfIspE [1]
  Boost in IspE inhibitory potency compared to initial hit 9: 8 fold
PfIspE [1]; [6]
  IC50: 53 ± 19 µM
PfIspE [4]; [8]
  Reduction in fluorescence of probe 23 label: 48%
PfIspE [4]; [9]
  Relative fluorescence of probe 23 label remaining: ~52%

## CCn1c(C)cc(-c2csc(Nc3ccc4[nH]ncc4c3)n2)c1C [Compound 20]
PfIspE [1]; [6]
  IC50: 121 ± 17 µM

## C#CCn1c(C)cc(-c2csc(Nc3cccc(CC(F)(F)F)c3)n2)c1C [Compound 21]
EcIspE [5]
  IC50: > 500 µM
PfIspE [1]; [6]
  IC50: 286 ± 55 µM

## C#CCn1c(C)cc(-c2csc(Nc3ccc(CC(F)(F)F)cc3)n2)c1C [Compound 22]
EcIspE [5]
  IC50: 31 ± 13 µM
PfIspE [1]; [6]
  IC50: 192 ± 21 µM

## C#CCn1c(C)cc(-c2csc(Nc3ccc(C4(C(F)(F)F)N=N4)cc3)n2)c1C [Compound 23]
PfNF54; [7]
  IC50: 9.8 ± 2.9 µg/mL
EcIspE [3]
  Probe binding to IspE (SDS-PAGE): high affinity
EcIspE [5]
  IC50: 77 ± 16 µM
PfIspE [1]; [6]
  IC50: 145 ± 42 µM
PfIspE [4]
  Probe binding to IspE (SDS-PAGE): high affinity

## C#CCCC1(CC(=O)Nc2ccccc2)N=N1 [Compound 24, reference compound]
EcIspE [3]
  Probe binding to IspE (SDS-PAGE): does not show the same binding profile
PfIspE [4]
  Probe binding to IspE (SDS-PAGE): does not show the same binding profile
